{"source": "patent US20260256792A1", "about": "“TREATMENT OF CHRONIC SPONTANEOUS URTICARIA BY ADMINISTERING (R)-2-[3-[4-AMINO-3-(2-FLUORO-4-PHENOXY-PHENYL)PYRAZOLO[3,4-D]PYRIMIDIN-1-YL]PIPERIDINE-1-CARBONYL]-4-METHYL-4-[4-(OXETAN-3-YL)PIPERAZIN-1-YL]PENT-2-ENENITRILE” (priority 2023, published 2026)", "tested_on": "moderate-to-severe chronic spontaneous urticaria (CSU)", "assay": "Phase 2 CSU study: urticaria activity score over 7 days (UAS7)", "format": "in vivo, human", "conditions": "Omalizumab-naïve", "text": "The study comprises a 12 week, randomized, double-blind, placebo-controlled, multi-center, dose-ranging efficacy and safety phase, followed by a 40 week open label extension (OLE) phase (see FIG. 1). The study consists of three phases and an optional OLE phase. […] Clinically, CSU is characterized by the spontaneous and recurrent appearance of pruritic hives. The proposed primary endpoints were the UAS7 at Week 12 in EU and EU reference countries and the ISS7 in the US. Regardless of where a participant was from, all assessments were the same. The UAS7 score is a composite score containing both the HSS7 and the ISS7. This allowed a global assessment of the two key components of urticaria: hives and itch. […] The UAS is a validated PRO measure. […] The daily UAS scores range from 0 to 6 point/day. […] Patients were to complete the UAS using the e-diary. […] The following secondary endpoints were to be analyzed using the same approach as for the primary endpoint: • Change from baseline in UAS7 at Week 4 • Change from baseline in UAS7 at Week 12 (for US and US reference countries) • Change from baseline in ISS7 at Week 12 (except US and US reference countries) • Change from baseline in HSS7 at Week 12 The following responder secondary endpoints were to be analyzed using the Cochran-Mantel-Haenszel test adjusted by region: • Proportion of participants with UAS7<6 at Week 12 • Proportion of participants with UAS7=0 at Week 12 Participants who received selected prohibited medications and/or rescue medications were to be considered as non-responders for time points after the medication usage. For other participants, all available data including those collected during the off-treatment period were to be used to determine the responder/non-responder status. Missing data were to be considered as non-responders.", "data": [{"compound": "CC(C)(C=C(C#N)C(=O)N1CCC[C@@H](n2nc(-c3ccc(Oc4ccccc4)cc3F)c3c(N)ncnc32)C1)N1CCN(C2COC2)CC1", "note": "[rilzabrutinib, (R)-2-[3-[4-amino-3-(2-fluoro-4-phenoxy-phenyl)pyrazolo[3,4-d]pyrimidin-1-yl]piperidine-1-carbonyl]-4-methyl-4-[4-(oxetan-3-yl)piperazin-1-yl]pent-2-enenitrile]", "values": [{"measurement": "Imputed non-responder n (%), UAS7 ≤6", "setting": "400 mg QPM, Week 8", "value": "7 (18.9) n (%)"}, {"measurement": "Non-responder n (%), UAS7 = 0", "setting": "400 mg QPM, Week 8", "value": "36 (97.3) n (%)"}, {"measurement": "Non-responder n (%), UAS7 ≤6", "setting": "400 mg QPM, Week 8", "value": "34 (91.9) n (%)"}, {"measurement": "OR for rilzabrutinib vs. placebo, UAS7 = 0", "setting": "400 mg QPM, Week 8", "value": 0.477}, {"measurement": "RRD (%) for rilzabrutinib vs. placebo, UAS7 = 0", "setting": "400 mg QPM, Week 8", "value": "−2.7", "unit": "%"}, {"measurement": "RRD (%) for rilzabrutinib vs. placebo, UAS7 ≤6", "setting": "400 mg QPM, Week 8", "value": "−8.4", "unit": "%"}, {"measurement": "Responder n (%), UAS7 = 0", "setting": "400 mg QPM, Week 8", "value": "1 (2.7) n (%)"}, {"measurement": "Responder n (%), UAS7 ≤6", "setting": "400 mg QPM, Week 8", "value": "3 (8.1) n (%)"}, {"measurement": "Imputed non-responder n (%), UAS7 = 0", "setting": "400 mg QPM, Week 9", "value": "6 (16.2) n (%)"}, {"measurement": "Imputed non-responder n (%), UAS7 ≤6", "setting": "400 mg QPM, Week 9", "value": "6 (16.2) n (%)"}, {"measurement": "Non-responder n (%), UAS7 = 0", "setting": "400 mg QPM, Week 9", "value": "36 (97.3) n (%)"}, {"measurement": "Non-responder n (%), UAS7 ≤6", "setting": "400 mg QPM, Week 9", "value": "34 (91.9) n (%)"}, {"measurement": "OR for rilzabrutinib vs. placebo, UAS7 = 0", "setting": "400 mg QPM, Week 9", "value": 0.305}, {"measurement": "OR for rilzabrutinib vs. placebo, UAS7 ≤6", "setting": "400 mg QPM, Week 9", "value": 0.715}, {"measurement": "RRD (%) for rilzabrutinib vs. placebo, UAS7 = 0", "setting": "400 mg QPM, Week 9", "value": "−5.6", "unit": "%"}, {"measurement": "RRD (%) for rilzabrutinib vs. placebo, UAS7 ≤6", "setting": "400 mg QPM, Week 9", "value": "−3.0", "unit": "%"}, {"measurement": "Responder n (%), UAS7 = 0", "setting": "400 mg QPM, Week 9", "value": "1 (2.7) n (%)"}, {"measurement": "Responder n (%), UAS7 ≤6", "setting": "400 mg QPM, Week 9", "value": "3 (8.1) n (%)"}, {"measurement": "Imputed non-responder n (%), UAS7 = 0", "setting": "400 mg QPM, Week 10", "value": "6 (16.2) n (%)"}, {"measurement": "Imputed non-responder n (%), UAS7 ≤6", "setting": "400 mg QPM, Week 10", "value": "6 (16.2) n (%)"}, {"measurement": "Non-responder n (%), UAS7 = 0", "setting": "400 mg QPM, Week 10", "value": "36 (97.3) n (%)"}, {"measurement": "Non-responder n (%), UAS7 ≤6", "setting": "400 mg QPM, Week 10", "value": "35 (94.6) n (%)"}, {"measurement": "OR for rilzabrutinib vs. placebo, UAS7 = 0", "setting": "400 mg QPM, Week 10", "value": 0.219}, {"measurement": "OR for rilzabrutinib vs. placebo, UAS7 ≤6", "setting": "400 mg QPM, Week 10", "value": 0.357}, {"measurement": "RRD (%) for rilzabrutinib vs. placebo, UAS7 = 0", "setting": "400 mg QPM, Week 10", "value": "−8.7", "unit": "%"}, {"measurement": "RRD (%) for rilzabrutinib vs. placebo, UAS7 ≤6", "setting": "400 mg QPM, Week 10", "value": "−8.6", "unit": "%"}, {"measurement": "Responder n (%), UAS7 = 0", "setting": "400 mg QPM, Week 10", "value": "1 (2.7) n (%)"}, {"measurement": "Responder n (%), UAS7 ≤6", "setting": "400 mg QPM, Week 10", "value": "2 (5.4) n (%)"}, {"measurement": "Imputed non-responder n (%), UAS7 = 0", "setting": "400 mg QPM, Week 11", "value": "7 (18.9) n (%)"}, {"measurement": "Imputed non-responder n (%), UAS7 ≤6", "setting": "400 mg QPM, Week 11", "value": "7 (18.9) n (%)"}, {"measurement": "Non-responder n (%), UAS7 = 0", "setting": "400 mg QPM, Week 11", "value": "35 (94.6) n (%)"}, {"measurement": "Non-responder n (%), UAS7 ≤6", "setting": "400 mg QPM, Week 11", "value": "34 (91.9) n (%)"}, {"measurement": "OR for rilzabrutinib vs. placebo, UAS7 = 0", "setting": "400 mg QPM, Week 11", "value": 0.986}, {"measurement": "OR for rilzabrutinib vs. placebo, UAS7 ≤6", "setting": "400 mg QPM, Week 11", "value": 0.456}, {"measurement": "RRD (%) for rilzabrutinib vs. placebo, UAS7 ≤6", "setting": "400 mg QPM, Week 11", "value": "−8.5", "unit": "%"}, {"measurement": "Responder n (%), UAS7 = 0", "setting": "400 mg QPM, Week 11", "value": "2 (5.4) n (%)"}, {"measurement": "Responder n (%), UAS7 ≤6", "setting": "400 mg QPM, Week 11", "value": "3 (8.1) n (%)"}, {"measurement": "Imputed non-responder n (%), UAS7 = 0", "setting": "400 mg QPM, Week 12", "value": "10 (27.0) n (%)"}, {"measurement": "Imputed non-responder n (%), UAS7 ≤6", "setting": "400 mg QPM, Week 12", "value": "10 (27.0) n (%)"}, {"measurement": "Non-responder n (%), UAS7 = 0", "setting": "400 mg QPM, Week 12", "value": "36 (97.3) n (%)"}, {"measurement": "Non-responder n (%), UAS7 ≤6", "setting": "400 mg QPM, Week 12", "value": "35 (94.6) n (%)"}, {"measurement": "OR for rilzabrutinib vs. placebo, UAS7 = 0", "setting": "400 mg QPM, Week 12", "value": 0.219}, {"measurement": "OR for rilzabrutinib vs. placebo, UAS7 ≤6", "setting": "400 mg QPM, Week 12", "value": 0.438}, {"measurement": "RRD (%) for rilzabrutinib vs. placebo, UAS7 = 0", "setting": "400 mg QPM, Week 12", "value": "−8.7", "unit": "%"}, {"measurement": "RRD (%) for rilzabrutinib vs. placebo, UAS7 ≤6", "setting": "400 mg QPM, Week 12", "value": "−6.1", "unit": "%"}, {"measurement": "Responder n (%), UAS7 = 0", "setting": "400 mg QPM, Week 12", "value": "1 (2.7) n (%)"}, {"measurement": "Responder n (%), UAS7 ≤6", "setting": "400 mg QPM, Week 12", "value": "2 (5.4) n (%)"}, {"measurement": "Imputed non-responder n (%), UAS7 = 0", "setting": "400 mg TID, Week 1", "value": "0 n (%)"}, {"measurement": "Imputed non-responder n (%), UAS7 ≤6", "setting": "400 mg TID, Week 1", "value": "0 n (%)"}, {"measurement": "Non-responder n (%), UAS7 = 0", "setting": "400 mg TID, Week 1", "value": "34 (97.1) n (%)"}, {"measurement": "Non-responder n (%), UAS7 ≤6", "setting": "400 mg TID, Week 1", "value": "27 (77.1) n (%)"}, {"measurement": "OR for rilzabrutinib vs. placebo, UAS7 ≤6", "setting": "400 mg TID, Week 1", "value": 4.809}, {"measurement": "RRD (%) for rilzabrutinib vs. placebo, UAS7 = 0", "setting": "400 mg TID, Week 1", "value": 0.2, "unit": "%"}, {"measurement": "RRD (%) for rilzabrutinib vs. placebo, UAS7 ≤6", "setting": "400 mg TID, Week 1", "value": 15.9, "unit": "%"}, {"measurement": "Responder n (%), UAS7 = 0", "setting": "400 mg TID, Week 1", "value": "1 (2.9) n (%)"}, {"measurement": "Responder n (%), UAS7 ≤6", "setting": "400 mg TID, Week 1", "value": "8 (22.9) n (%)"}, {"measurement": "Imputed non-responder n (%), UAS7 = 0", "setting": "400 mg TID, Week 2", "value": "0 n (%)"}, {"measurement": "Imputed non-responder n (%), UAS7 ≤6", "setting": "400 mg TID, Week 2", "value": "0 n (%)"}, {"measurement": "Non-responder n (%), UAS7 = 0", "setting": "400 mg TID, Week 2", "value": "31 (88.6) n (%)"}, {"measurement": "Non-responder n (%), UAS7 ≤6", "setting": "400 mg TID, Week 2", "value": "27 (77.1) n (%)"}, {"measurement": "OR for rilzabrutinib vs. placebo, UAS7 = 0", "setting": "400 mg TID, Week 2", "value": 4.736}, {"measurement": "OR for rilzabrutinib vs. placebo, UAS7 ≤6", "setting": "400 mg TID, Week 2", "value": 4.455}, {"measurement": "RRD (%) for rilzabrutinib vs. placebo, UAS7 = 0", "setting": "400 mg TID, Week 2", "value": 8.3, "unit": "%"}, {"measurement": "RRD (%) for rilzabrutinib vs. placebo, UAS7 ≤6", "setting": "400 mg TID, Week 2", "value": 15.3, "unit": "%"}, {"measurement": "Responder n (%), UAS7 = 0", "setting": "400 mg TID, Week 2", "value": "4 (11.4) n (%)"}, {"measurement": "Responder n (%), UAS7 ≤6", "setting": "400 mg TID, Week 2", "value": "8 (22.9) n (%)"}]}]}
